# ChEMBL document CHEMBL2169834, “Toward rational fragment-based lead design without 3D structures” (J Med Chem, 2012)
# Activity calls are given as the source filed them. The rule behind the calls is not given here.
# Key:
# [1] = Binding affinity to quail lipocalin Q83 assessed as first molecule binding at 2:1 compound:protein ratio by […]; set-up: species or system Galliformes
# [2] = tested on: Galliformes; test: Binding affinity to quail lipocalin Q83 by 1H-15N HSQC-based NMR analysis
# [3] = Binding affinity to quail lipocalin Q83 assessed as second molecule binding at 2:1 compound:protein ratio by […]; set-up: species or system Galliformes
# [4] = target: T1, Catenin beta-1 (Homo sapiens) (UniProt P35222); test: Binding affinity to human beta-catenin at 1 mM by 1H-STD NMR analysis
# T1 sequence (whole entry): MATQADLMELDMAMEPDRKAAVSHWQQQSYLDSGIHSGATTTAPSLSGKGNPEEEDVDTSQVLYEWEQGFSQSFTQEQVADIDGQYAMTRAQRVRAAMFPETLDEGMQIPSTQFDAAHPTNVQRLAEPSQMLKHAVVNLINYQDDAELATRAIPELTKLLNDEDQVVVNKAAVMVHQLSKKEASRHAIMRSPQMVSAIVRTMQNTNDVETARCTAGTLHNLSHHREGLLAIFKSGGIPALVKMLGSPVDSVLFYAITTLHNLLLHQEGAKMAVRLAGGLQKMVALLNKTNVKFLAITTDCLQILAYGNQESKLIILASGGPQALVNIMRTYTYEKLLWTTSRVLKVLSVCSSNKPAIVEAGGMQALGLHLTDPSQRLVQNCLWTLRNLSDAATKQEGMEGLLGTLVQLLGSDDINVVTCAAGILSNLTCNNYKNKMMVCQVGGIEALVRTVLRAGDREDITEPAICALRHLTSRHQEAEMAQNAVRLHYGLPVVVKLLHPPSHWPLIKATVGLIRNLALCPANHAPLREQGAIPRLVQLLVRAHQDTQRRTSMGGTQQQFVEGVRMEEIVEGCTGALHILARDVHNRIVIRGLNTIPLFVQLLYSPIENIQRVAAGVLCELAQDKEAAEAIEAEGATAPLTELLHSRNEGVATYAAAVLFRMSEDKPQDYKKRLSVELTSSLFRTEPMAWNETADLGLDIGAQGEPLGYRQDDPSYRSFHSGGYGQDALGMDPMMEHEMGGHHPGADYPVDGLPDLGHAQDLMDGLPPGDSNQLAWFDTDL
# [5] = Binding affinity to quail lipocalin Q83 at 200 uM by tryptophan fluorescence quenching experiment; set-up: species or system Galliformes
Kd [1],Activity [2],Kd [3],Activity [4],Kd [5],SMILES
500 µM,Active,70000 µM,–,–,COc1cc(C(=O)O)ccc1O [VANILLIC ACID]
–,–,–,Active,–,Cc1c(Br)cc2c(-c3ccccc3C(=O)O)c3cc(Br)c(=O)c(Br)c-3oc2c1Br
–,–,–,Active,–,O=C1OC2(c3ccc(O)cc3Oc3cc(O)ccc32)c2ccccc21
–,Active,–,–,25 µM,Nc1ccc(/N=N/c2ccc(S(=O)(=O)O)cc2)cc1S(=O)(=O)O
